Measurements as given in patent publication US11407796B2, “Antisecretory factor 17” (LANTMÄNNEN AS-FAKTOR AB, priority 2016, dated 2022).
Where two headings read alike, the source gives them in different places. Ends that are not written are not given here. Peptide text beside a SMILES is read from it. * marks the point of attachment. Succinimide(1-Et,3-yl) = CCN1C(=O)CC(*)C1=O

Legend:
[1] = Kinetics of AF16 and metabolites in plasma with ZnSO4 precipitant +/-DTT; type: in vitro ADME, human, rat; conditions: plasma precipitated with ZnSO4, +/−DTT
Description: The kinetics shown in FIG. 13 was surprising given the fact that DTT was used in the quenching solution with TCA, although it is likely that the reducing capability of DTT is lowered in acidic conditions. It was therefore tested if the same pattern occurred when using a neutral precipitant ZnSO4 (without NaOH). This precipitation method is not as efficient but would hopefully give more information on the formation of the major disulfide products.

[2] = AF16 metabolite identification in rat plasma; type: in vitro ADME
Procedure: (§1) (10 μM incubation conc.).
(§2) The flow rate was 0.5 ml/min.
(§3) AF16 and the isotopically labelled peptide in similar quantity were incubated in plasma of rat and human as described above. For analysis of full scan MS data, the metabolite identification software from Sciex, Lightsight, was used, which compares the incubated MS response to the quality control (QC) sample and assigns apparent peaks as metabolites with specific mass over charge (m/z) values. The software is currently not optimal to use with multi-charged compounds such as peptides so the hit-rate of metabolite detection is fairly high and manual assessment of each found peak had to be performed. The largest metabolite peak areas were then rank ordered and in some cases verified by MS/MS fragmentation. Skyline methodology was used to predict fragmentation of the identified peptides, but also aided in creating sensitive MRM methods so that low amounts could be monitored.

[3] = tested on: Caco-2 cells; experiment: AF16 stability and metabolite formation with Caco-2 cells; type: in vitro ADME
Procedure: (§4) Investigation of the fate of AF16 in the presence of Caco-2 cells was performed on three separate occasions. Firstly, a quantitative measurement was performed using MRM methodology (table 1) over 0, 15, 30 and 60 min. Here, AF16 or its possible sulfonic acid metabolite was monitored both in the apical and in the basolateral compartment (not shown). The second experiment was a qualitative determination of the fate of AF16 during a 60 min incubation. 50 μM AF16 in HBSS buffer was incubated at the apical side of the Caco-2 cell monolayer and 100 μl aliquots was extracted at 5, 10, 20, 30 and 60 min. The sample was placed on a 96-well plate containing 100 μl MeCN/H2O. The plate was sealed and frozen until full-scan UPLC-MS analysis (see below and table 2). The third experiment was a mirror of the second and the only difference was that a HBSS solution of AF16:AF16 IS (1:1) was used, to aid in the structure elucidation.
(§5) All samples from the different assays were analyzed by UPLC-MS/MS. The following system was used, a Waters XEVO TQ triple-quadrupole mass spectrometer (electrospray ionization, ESI) coupled to a Waters Acquity UPLC (VVaters Corp.). For chromatographic separation a general gradient was used (1% mobile phase B to 50% over 3 min total run) on a C18 BEH 1.7 μm column 2×100 mm (VVaters Corp.). Mobile phase A consisted of 0.05% TFA and mobile phase B 100% acetonitrile. The flow rate was 0.5 ml/min. In the full-scan MS analysis the same chromatographic settings was used except that 10 μl was injected (full loop). The MS was set to scan for ions in the 100-400 or 400-700 m/z window using the cone voltage in table 1.
(§6) It is well known that in the intestine, and as such at the apical side of Caco-2 cells, brush-border peptidases exist. To further investigate this, a separate experiment was designed. Caco-2 cells were exposed at the apical side to 50 μM AF16, with or without a protease inhibitor cocktail, and were sampled over 1 h.

[4] = AF16 metabolite identification in human plasma; type: in vitro ADME
Procedure: as §1, §2, §3

[5] = AF16 and AF16-NEM stability in human plasma; type: in vitro ADME; conditions: for half-life: 37° C.
Procedure: Test of AF16 and AF16-NEM stability in plasma was performed using pooled human plasma (4 donors, two female+two male) in HPLC glass vials at 37° C. (20 μM incubation conc.). Four different matrices were tested: Plasma: isotonic 67 mM potassium phosphate pH 7.4 (KP) (1:1), plasma:KP+0.1 mM DTT, KP and KP+0.1 mM DTT. Incubation times were 0, 1.5 and 3 h. At the indicated times a 50 μl aliquot was extracted and quenched/precipitated in 150 μl ice-cold methanol and frozen until analysis. Relative quantification was performed UPLC-MS/MS.
AF16, the stable isotope labeled (SIL) AF16 and the alkylated analog AF16-NEM were incubated at 1 μM in human plasma: 0.1M potassium phosphate pH 7.4 (KP) (1:1), human plasma: KP (1:1)+1 mM DTT, KP or KP+1 mM DTT over 3 h at 37° C. to investigate stability. KP was included to provide buffer capacity to the plasma and to not confuse the results with pH related effects.

[6] = AF16 stability and metabolite formation with Caco-2 cells; type: in vitro ADME; conditions: Caco-2, 50 μM, apical side of Caco-2 cells
Procedure: as §4, §5, §6

[7] = plasma
[8] = 30 min incubation of AF16, (+) inhibitor cocktail
[9] = 30 min incubation of AF16, (−) inhibitor cocktail
[10] = 60 min incubation of AF16, (+) inhibitor cocktail
[11] = 60 min incubation of AF16, (−) inhibitor cocktail
[12] = human plasma:KP (1:1) + DTT, read-out: in vitro half-life (t½) with DTT (converted)
[13] = human plasma:KP pH 7.4 (1:1), no DTT, read-out: in vitro half-life (t½) (converted)

Compound	resilience of the disulfide against DTT reduction [1]	% of QC area at 30 min incubation time [2] [%]	Tentative amounts (%) of molecular species [3, 8] [%]	Tentative amounts (%) of molecular species [3, 9] [%]	Tentative amounts (%) of molecular species [3, 10] [%]	Tentative amounts (%) of molecular species [3, 11] [%]	% of QC area at 30 min incubation time [4] [%]	fold higher stability than AF16 ([5]; human plasma, no DTT) [fold]	half-life [5, 12] [min]	half-life [5, 13] [min]	half-life ([6]; with protease inhibitor cocktail (Bestatin, Diprotin A, Captopril), read-out: t½ of degradation with inhibitor cocktail) [min]	half-life ([6]; without inhibitor cocktail, read-out: t½ of degradation) [min]	t½ of degradation with inhibitor cocktail ([3]; 50 μM, apical side of Caco-2 cells, with protease inhibitor cocktail (Bestatin, Diprotin A, Captopril)) [min]	half-life [7] [min]
C[SCC]HSKTRSNPENNVGL (not fully specified (N-terminus); printed as C[SCC]HSKTRSNPENNVGL; also: [SCC] on the N-terminal Cys, meaning not given here) [M10]	resilient													
CC(C)C[C@H](NC(=O)CNC(=O)[C@@H](NC(=O)[C@H](CC(N)=O)NC(=O)[C@H](CC(N)=O)NC(=O)[C@H](CCC(=O)O)NC(=O)[C@@H]1CCCN1C(=O)[C@H](CC(N)=O)NC(=O)[C@H](CO)NC(=O)[C@H](CCCNC(=N)N)NC(=O)[C@@H](NC(=O)[C@H](CCCCN)NC(=O)[C@H](CO)NC(=O)[C@@H](N)Cc1c[nH]cn1)[C@@H](C)O)C(C)C)C(=O)O [M3, HSK TRSNP ENNVG L] (H-HSKTRSNPENNVGL-OH; N-terminus and C-terminus assumed)		0.4	2	38	4	24	0.9							
CCN1C(=O)CC(SC[C@H](NC(=O)[C@@H](N)C(C)C)C(=O)N[C@@H](Cc2c[nH]cn2)C(=O)N[C@@H](CO)C(=O)N[C@@H](CCCCN)C(=O)N[C@H](C(=O)N[C@@H](CCCNC(=N)N)C(=O)N[C@@H](CO)C(=O)N[C@@H](CC(N)=O)C(=O)N2CCC[C@H]2C(=O)N[C@@H](CCC(=O)O)C(=O)N[C@@H](CC(N)=O)C(=O)N[C@@H](CC(N)=O)C(=O)N[C@H](C(=O)NCC(=O)N[C@@H](CC(C)C)C(=O)O)C(C)C)[C@@H](C)O)C1=O (stereo partly shown) [AF16-NEM] (H-VC(Succinimide(1-Et,3-yl))HSKTRSNPENNVGL-OH; N-terminus and C-terminus assumed)								~5	252	108				
CC(C)C[C@H](NC(=O)CNC(=O)[C@@H](NC(=O)[C@H](CC(N)=O)NC(=O)[C@H](CC(N)=O)NC(=O)[C@H](CCC(=O)O)NC(=O)[C@@H]1CCCN1C(=O)[C@H](CC(N)=O)NC(=O)[C@H](CO)NC(=O)[C@H](CCCNC(=N)N)NC(=O)[C@@H](NC(=O)[C@H](CCCCN)NC(=O)[C@H](CO)NC(=O)[C@H](Cc1c[nH]cn1)NC(=O)[C@H](CS)NC(=O)[C@@H](N)C(C)C)[C@@H](C)O)C(C)C)C(=O)O [AF16, VCHSKTRSNPENNVGL] (H-VCHSKTRSNPENNVGL-OH; N-terminus and C-terminus assumed)		4	79	6	63	1	1		66	24	57	8	55	≤ 10
